According to US5863913A, “Aromatic compound and pharmaceutical composition” (Kureha Chemical Industry Co., Ltd., priority 1996, dated 1999):

How the values were obtained:
[1] = biological target: T1, angiotensin II receptor subtype 1 (AT1) (Oryctolagus cuniculus, UniProt P34976); assay: Binding to receptors: angiotensin II receptor subtype 1 (AT1); set-up: species or system rabbits (adrenal glands); conditions: rabbit adrenal glands, tracer 3H-angiotensin II
T1 construct: receptor : from adrenal glands in rabbits; from tissue; host or cells: rabbit adrenal glands
T1 sequence (P34976 1-359): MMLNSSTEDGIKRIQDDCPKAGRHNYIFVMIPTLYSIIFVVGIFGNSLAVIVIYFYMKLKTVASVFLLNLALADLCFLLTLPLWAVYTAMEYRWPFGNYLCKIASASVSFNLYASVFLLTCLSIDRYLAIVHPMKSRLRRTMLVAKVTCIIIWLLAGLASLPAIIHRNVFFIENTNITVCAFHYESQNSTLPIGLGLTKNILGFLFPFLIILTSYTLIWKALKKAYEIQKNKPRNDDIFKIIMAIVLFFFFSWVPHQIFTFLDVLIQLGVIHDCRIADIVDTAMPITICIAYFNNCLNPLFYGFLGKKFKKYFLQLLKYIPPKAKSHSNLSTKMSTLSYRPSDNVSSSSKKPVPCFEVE

[2] = biological target: T2, angiotensin II receptor subtype 2 (AT2) (Bos taurus, UniProt G5E6F7); assay: Binding to receptors: angiotensin II receptor subtype 2 (AT2); conditions: bovine cerebellar cortex, tracer 125I-Tyr4-angiotensin II
T2 construct: receptor : from cerebellar cortex in bovine; from tissue; host or cells: bovine cerebellar cortex
T2 sequence (G5E6F7 1-362): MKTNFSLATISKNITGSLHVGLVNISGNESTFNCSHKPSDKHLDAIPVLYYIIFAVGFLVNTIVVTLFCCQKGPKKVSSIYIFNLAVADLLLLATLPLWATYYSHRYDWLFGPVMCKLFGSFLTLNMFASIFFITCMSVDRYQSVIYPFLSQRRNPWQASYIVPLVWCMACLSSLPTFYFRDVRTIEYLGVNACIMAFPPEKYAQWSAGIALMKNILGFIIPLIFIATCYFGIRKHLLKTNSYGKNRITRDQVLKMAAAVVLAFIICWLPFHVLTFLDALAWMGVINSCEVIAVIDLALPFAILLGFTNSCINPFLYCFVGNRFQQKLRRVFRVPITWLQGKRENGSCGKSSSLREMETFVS
Experimental: In this Example, the affinity to the angiotensin II receptor subtype 1 or subtype 2 was evaluated by a binding assay in accordance with the method described in Biochem. Pharmacol., 33, 4057-4062 (1984).
Specifically, the measurement of the total binding in the presence of each drug was performed as follows:
A mixture (final volume=0.25 ml) of a drug in a given concentration (the drug was dissolved in DMSO, and diluted to a double volume with a buffer attached to a drug discovery system to prepare a sample for the assay; 0.025 ml), a tracer (0.025 ml), and receptors (0.2 ml) was incubated [in the case of the angiotensin II receptor subtype 1 (AT1), at room temperature for 3 hours, and in the case of the subtype 2 (AT2), at 37° C. for 1 hour]. Then, the reaction mixture was filtered with suction (GF/C filter was used in AT1, and GF/B filter was used in AT2). The filter papers after filtration with suction (the tracer bound to the receptors) were counted by a γ-well counter (ARC-500, Aloka). The non-specific bindings were measured by repeating the above method, except that a large excess amount of a displacer was added. The specific binding of the drug in the given concentration was calculated by subtracting the non-specific binding from the total binding, respectively.
In AT1 and AT2, the percentages found to inhibit the bindings of radioactive ligands (tracer) to receptors by the drugs to be tested (IC50 value of concentration to show 50% inhibition, or binding inhibition % in 100 μM) were measured, using the drugs to be tested and control drugs in the given concentration.
receptor : from cerebellar cortex in bovine
tracer : ^125 ITyr^4angiotensin II
control drug : angiotensin II (human)
(displacer) : angiotensin II (human)

[3] = test system: kidney disease model rats; assay: Renal function indicatory value in kidney disease model rats; type: in vivo, Sprague-Dawley female rats; conditions: 20 mg/kg/day with drinking water, six weeks; for Creatinine clearance: 24 hours urine, control 0.22; for Creatinine / Blood urea nitrogen: serum; for Creatinine: control 2.0; for Blood urea nitrogen: control 100
[4] = test system: kidney disease model rats; assay: Survival time of kidney diseased animals; type: in vivo, Sprague-Dawley female rats; conditions: 20 mg/kg/day with drinking water, observation period eight weeks (upper limit); control 5.0

Row | Compound | inhibition at 100 µM [1] [%] | inhibition at 100 µM [2] [%] | Creatinine clearance [3] [mL/min] | Creatinine [3] [mg/dL] | Blood urea nitrogen [3] [mg/dL] | Average survival time [4] [weeks]
1 | CCCCC(=O)N(Cc1ccc(C(=O)O)cc1)c1cc(C(=O)N2CCN(CCC)CC2)ccc1C(C)C [Compound No. 19, 3-[[(4-carboxyphenyl)methyl]valeramido]-4-i-propylbenzoic acid 4'-n-propylpiperazide] | 11 | 18 | 0.33 | 1.3 | 76 | 7.2
2 | CCCCCCC(=O)N(Cc1ccc(C(=O)O)cc1)c1cc(C(=O)N2CCN(CCC)CC2)ccc1C(C)C [Compound No. 20, 3-N-[[(4-carboxyphenyl)methyl]n-heptanamido]-4-i-propylbenzoic acid 4'-n-propylpiperazide] | 0 | 0 | 0.32 | 1.3 | 75 | 7.3
